Data taken from patent US9586963B2 (GENFIT, priority 2011, dated 2017).

How the values were obtained:
Rev-Erb alpha [1] = target: T1, Rev-Erb alpha (Homo sapiens, UniProt P20393); experiment: TR-FRET (HTRF) assay of Rev-Erb alpha LBD with NCoR peptide ID1; format: biochemical; settings: cell-free, Rev-Erb alpha LBD His 20 nM, NCoR ID1 30 nM
T1 sequence (P20393 284-614 limits assumed): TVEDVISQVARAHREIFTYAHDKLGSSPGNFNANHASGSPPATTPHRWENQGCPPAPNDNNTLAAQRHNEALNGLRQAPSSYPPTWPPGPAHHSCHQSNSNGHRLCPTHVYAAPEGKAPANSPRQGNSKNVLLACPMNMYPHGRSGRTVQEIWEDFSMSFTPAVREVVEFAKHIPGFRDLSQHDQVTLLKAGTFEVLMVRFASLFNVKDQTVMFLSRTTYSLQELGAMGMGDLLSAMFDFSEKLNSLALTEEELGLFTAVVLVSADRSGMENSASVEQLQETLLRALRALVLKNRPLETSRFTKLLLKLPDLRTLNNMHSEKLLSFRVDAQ
Experimental: Recombinant histidine-tagged Rev-Erb alpha ligand binding domain (LBD; SEQ ID NO: 1) and NCoR peptide ID1 (SEQ ID NO: 2) were tagged with fluorophores. Histidine-tagged Rev-Erb alpha LBD protein was set up in a one to one ratio of 20 nM of His D2 (Cis Bio International 61HSDLB). The NCoR peptide (ID1) was prepared in-house. We used a concentration of 30 nM NCoR and 10 nM Terbium-labeled streptavidin (Cis Bio International 610SATLB).
The buffer for this assay comprised PBS pH 7.2, NaH2P04 at 4 g/L, Na2HP04 at 27 g/L and NaCl at 9 g/l in deionized water. Before using the buffer in the assay, a mixture comprising 1 mM of DTT, 2 mM of CHAPS, 1 mM of EDTA and 0.1% BSA fatty acid free was added to the appropriate amount of buffer. The protein mixture comprising recombinant Rev-Erb alpha LBD His (20 nM), the NCoR ID1 (30 nM) and their respective fluorophores were added to each well of a 384-well plate in a volume 18 μl. The compounds to analyze were diluted in PBS 10% DMSO and was added in a volume of 2 μL in a well. The final mixture volume was 20 μL and the mixture was allowed equilibrate for 2 hours at room temperature. Fluorescence intensity was then counted on the TECAN Genios Pro as a ratio of the fluorescence measured at 665 nm and that measured at 620 nm obtained in the absence of the compound (buffer only) or with the compound. Four experiments were carried out for each compound.
Each compound has been tested at 6 different concentrations to depict a dose-effect enabling the measure of biochemical parameters such as EC50 and TOP activation (%).
The Homogenous Time Resolved Fluorescence (HTRF) assay allows studying the ability of compounds according to the invention to activate Rev-Erb alpha and thus modulate the interaction with its corepressor. The molecular interactions between these bio-molecules are assessed in a cell-free assay by coupling each partner with a fluorescent label and detecting the level of energy transfer. This energy transfer occurs when the distance between the donor (SA Terbium complex) and the acceptor (D2) is small enough.
The ability of compounds according to the invention of activating Rev-Erb alpha was assessed in the described acellular assay. EC50 and TOP activation were measured.

Rev-Erb alpha [2] = target: T1, Rev-Erb alpha; experiment: M2H (mammalian two-hybrid) cellular activation assay of Rev-Erb alpha; format: cell-based; settings: M2H assay, HEK293 cells, Gal4-Rev-Erb alpha / VP16-NCoR, luciferase reporter
How it was run: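 Six-point dose-response, 18 h, 37 °C, serum-free, in HEK293 cells carrying a Gal4-RE luciferase reporter with Gal4-Rev-Erb alpha or beta plus VP16-NCoR (corepressor interaction readout). EC50 and TOP activation (%) derived from luminescence across four experiments.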

Rev-Erb beta = target: T2, Rev-Erb beta (Homo sapiens, UniProt Q14995); experiment: M2H (mammalian two-hybrid) cellular activation assay of Rev-Erb beta; format: cell-based; settings: HEK293 cells, Gal4-Rev-Erb beta / VP16-NCoR, luciferase reporter
T2 sequence (Q14995 369-579 limits assumed): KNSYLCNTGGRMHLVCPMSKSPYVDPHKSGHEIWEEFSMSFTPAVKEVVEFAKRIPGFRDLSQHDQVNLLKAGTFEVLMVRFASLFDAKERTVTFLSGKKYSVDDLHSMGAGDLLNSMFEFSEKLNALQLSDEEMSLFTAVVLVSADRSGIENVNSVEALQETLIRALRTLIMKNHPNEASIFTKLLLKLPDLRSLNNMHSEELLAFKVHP
Experimental: In this system, Rev-Erb alpha or Rev-Erb beta is expressed as a fusion to the Gal4 DNA-binding domain and the cofactor NCoR is expressed as a fusion to the activation domain of the Herpes Simplex Virus tegument protein VP16. These fusion proteins were included in plasmids at a concentration of 1 μg/μL. The pBS-SK+ vector was added to the preparation to adjust the DNA quantity to a fixed value for each condition.
The transfection mix (Jet-PEI protocol, Polyplus transfection) comprised: • 3 mL of Jet PEI Mix (180 μL Jet-Pei and NaCl at 150 mM) and • 3 mL of the DNA Mix or of the DNA Mix control (wherein the Gal4-Rev-Erb alpha plasmid was replaced by a pGal4phi plasmid).
DNA Mix comprised 1.2 mL of DNA and 1.8 mL of NaCl at 150 mM with, in a T225 flask: • 90 ng of Gal4-Rev-Erb alpha, or 90 ng of Gal4-Rev-Erb beta, • 4500 ng of VP16-NCoR, • 27000 ng of Gal4-RE and • 13410 ng of pBS-SK+. Cells
HEK293 cells were cultured in DMEM (Invitrogen 41965) comprising 10% FBS, P/S, 1% glutamine, 1% pyruvate (Invitrogen 11360) and 1% amino acids (Invitrogen 11140). Cells were then batch co-transfected with plasmid vectors (described in the table above) using as Jet-PEI as reagent (Polyplus) following the protocol specified below.
The 6 mL-transfection mix was transferred in a T225 flask. HEK293 cells were then added at a concentration of 12 Millions of cells for 54 mL of medium (DMEM comprising 10% FBS and 1% P/S). Cells incubated over-night at 37° C. and under 5% CO2.
This cell-based assay is performed using 384-well Greiner white plates (Reference 781080). After the incubation, cells were rinsed with PBS, trypsinized, centrifuged and resuspended in free-serum DMEM without phenol red (Invitrogen 31053). Cells were counted and adjusted to 0.5 Million per mL and plated at a concentration of 10,000 cells in 20 μL per well. They were incubated a minimum of 4 hours at 37° C. under 5% CO2. Cells were treated with 20 μL of the compound to analyze (concentration of 2× diluted in DMEM without FBS containing a maximum of 1% DMSO) and incubated over-night (18 hours, 37° C. and 5% CO2). Each compound has been tested at 6 different concentrations to depict a dose-effect allowing the measure of biochemical parameters such as EC50 and TOP activation (%).
Cells were incubated 30 minutes with 40 μL/well of Steady Glow (Promega) and luminescence was read with TECAN Genios Pro (100 ms/w). Four experiments were carried out for each compound.
Each compound has been tested at 6 different concentrations to depict a dose-effect allowing the measure of biochemical parameters such as EC50 and TOP activation (%).
The mammalian two-hybrid system (M2H) assay consists herein in studying the ability of compounds according to the invention to activate Rev-Erbalpha in cells and thus modulate the interaction with its corepressor. The interaction of the two proteins is assessed with the help of the Luciferase reporter gene. HEK293 cells were transfected with two gene constructions: Gal4-RE VP16-NCoR and Gal4-Rev-Erbalpha or with Gal4-RE, sVP16-NCoR and Gal4-Rev-Erb beta.
The ability of compounds according to the invention of activating Rev-Erbalpha alpha or Rev-Erb beta was assessed in the described cell-based assay. EC50 and TOP activation (%) were measured.

[3] = tested on: Diet Induced Obesity mice; experiment: In vivo evaluation in Diet Induced Obesity mice (high fat diet): glycemia, Hb1Ac; set-up: species or system C57BI/6J mice; settings: diet induce obese mice, 45 mpk, once daily by gavage, 28 days
Experimental: Four week-old male C57BI/6J mice (from Janvier, France) were fed with an high fat diet (D12492, SSNIFF) for up to 10 weeks. All mice were housed 2 per cage under controlled conditions of humidity, lighting and temperature. At the end of the 10 week of diets, mice were randomized according to their body weight gain, body weight, and their non-fasting glycaemia. The treatments with compound of interest were administered once daily, by gavage (10 mL/kg) for 28 consecutive days. For oral administrations, the drugs were suspended in CMC 1%+Tween 80 0.1%.
As previously described animals were assayed for their non fasting glycaemia and biochemical parameters such as Hb1Ac.
At the end of the treatment period, animals were anesthetized with isoflurane and then sacrificed by cervical dislocation. The Student's t-test was used to test for statistical differences between drug and vehicle treatments when a single dose of drug was used.

[4] = high clearance and rapid metabolism; cited from earlier work
diet induced obese mice = settings: Solt et al; cited from earlier work

Row | SMILES | melting point | EC50 (Rev-Erb alpha [1]) | EC50 (Rev-Erb alpha [2]) | EC50 (Rev-Erb beta) | other results
1 | Fc1ccc(-c2ccccc2)c(Oc2ccc3nnc(Cl)n3n2)c1 [Cpd.4-7, 6-(4-fluoro-biphenyl-2-yloxy)-3-chloro-[1,2,4]triazolo[4,3-b]pyridazine] | 180.7 °C | < 0.1 µM | 0.1 to 1 µM |  | 
2 | O=C(c1ccccc1)c1ccccc1Oc1ccc2nnc(C(F)(F)F)n2n1 [Cpd.4-8, (2-(3-(trifluoromethyl)-[1,2,4]triazolo[4,3-b]pyridazin-6-yloxy)phenyl)(phenyl)methanone] | 112.1 °C | 0.1 to 1 µM | 1 to 6 µM |  | 
3 | Fc1ccc(-c2ccccc2Oc2ccc3nnc(Cl)n3n2)cc1 [Cpd.4-10, 6-(4′-fluoro-biphenyl-2-yloxy)-3-chloro-[1,2,4]triazolo[4,3-b]pyridazine] | 144.4 °C | < 0.1 µM | 0.1 to 1 µM |  | 
4 | O=C(c1ccccc1)c1ccccc1Oc1ccc2nnc(Cl)n2n1 [Cpd.4-11, (2-(3-chloro-[1,2,4]triazolo[4,3-b]pyridazin-6-yloxy)phenyl)(phenyl)methanone] | 137.9 °C | 1.1 to 6 µM | 1 to 6 µM |  | 
5 | FC(F)(F)c1nnc2ccc(Cc3ccccc3-c3ccccc3)nn12 [Cpd.4-12, 6-(biphenyl-2-ylmethyl)-3-(trifluoromethyl)-[1,2,4]triazolo[4,3-b]pyridazine] | 117.4 °C | 1.1 to 6 µM | 1 to 6 µM |  | 
6 | Cc1cc(Oc2ccc3nnc(Cl)n3n2)c(-c2ccccc2)cc1C [Cpd.4-18, 6-(4,5-dimethyl-biphenyl-2-yloxy)-3-chloro-[1,2,4]triazolo[4,3-b]pyridazine] | 147.5 °C |  | < 0.1 µM | 0.1 to 1 µM | 
7 | CC(C)(C)c1ccc(Oc2ccc3nnc(Cl)n3n2)c(-c2ccccc2)c1 [Cpd.4-19, 6-(5-tert-butyl-biphenyl-2-yloxy)-3-chloro-[1,2,4]triazolo[4,3-b]pyridazine] | 199.1 °C |  | 0.1 to 1 µM | 0.1 to 1 µM | 
8 | CN(C)c1ccc(-c2ccccc2)c(Oc2ccc3nnc(Cl)n3n2)c1 [Cpd.4-45, 3-chloro-6-(4-N,N-dimethylamino-biphenyl-2-yloxy)-[1,2,4]triazolo[4,3-b]pyridazine] |  |  | < 0.1 µM | 0.1 to 1 µM | 
9 | CN(C)c1ccc(Oc2ccc3nnc(Cl)n3n2)c(-c2ccccc2)c1 [Cpd.4-46, 3-chloro-6-(5-dimethylamino-biphenyl-2-yloxy)-[1,2,4]triazolo[4,3-b]pyridazine] | 148 to 149 °C |  | < 0.1 µM | 0.1 to 1 µM | 
10 | CCNc1ccc(Oc2ccc3nnc(Cl)n3n2)c(-c2ccccc2)c1 [Cpd.4-54, 3-chloro-6-(5-ethylamino-biphenyl-2-yloxy)-[1,2,4]triazolo[4,3-b]pyridazine] | 72 to 77 °C |  | 0.1 to 1 µM | 0.1 to 1 µM | 
11 | CCCCNc1ccc(Oc2ccc3nnc(Cl)n3n2)c(-c2ccccc2)c1 [Cpd.4-58, 3-chloro-6-(5-butylamino-biphenyl-2-yloxy)-[1,2,4]triazolo[4,3-b]pyridazine] | 85 to 88 °C |  | 0.1 to 1 µM | 0.1 to 1 µM | 
12 | FC(F)(F)c1ccc(-c2cncnc2)c(Oc2ccc3nnc(Cl)n3n2)c1 [Cpd.4-99, 3-chloro-6-(2-(pyrimidin-5-yl)-5-(trifluoromethyl)phenoxy)-[1,2,4]triazolo[4,3-b]pyridazine] |  |  | 1 to 6 µM |  | Hb1Ac levels [3]: significantly reduced; non fasting blood glucose concentration [3]: significantly reduce
13 | CCOC(=O)C1Cc2ccccc2CN1C(=O)c1ccc(SC)s1 (centres unmarked) [SR8278] |  |  |  |  | pharmacokinetic properties [4]: poor pharmacokinetic properties
14 | CCOC(=O)N1CCC(CN(Cc2ccc(Cl)cc2)Cc2ccc([N+](=O)[O-])s2)C1 (centres unmarked) [SR9009] |  |  |  |  | metabolic parameters (diet induced obese mice): improve the metabolic parameters
15 | CCCCCNC(=O)N1CCC(CN(Cc2ccc(Cl)cc2)Cc2ccc([N+](=O)[O-])s2)C1 (centres unmarked) [SR9011] |  |  |  |  | metabolic parameters (diet induced obese mice): improve the metabolic parameters
